In US8658661B2, “Oxadiazole inhibitors of leukotriene production” (Boehringer Ingelheim International GmbH, priority 2010, dated 2014):

Legend:
[1] = tested on: synthesis of LTB4 in human whole blood; assay: Human whole blood assay (inhibition of LTB4 synthesis, calcimycin stimulated); assay type: cell-based; details: heparinized human whole blood, calcimycin 20 μM, plasma LTB4
Procedure, shortened: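 LTB4 in plasma was quantified by HTRF immunoassay. Before that, compound-treated heparinized whole blood (15 min, 37 °C) received 20 μM final calcimycin for a further 30 min at 37 °C, followed by centrifugation at 1500×g.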

[2] = biological target: T1, recombinant human FLAP protein (Homo sapiens, UniProt P20292); assay: FLAP binding assay (SPA, displacement of [125I]L-691,831); details: membranes of sf9 cells expressing recombinant human FLAP; [125I]L-691,831 probe; read-out: FLAP binding IC50
T1 construct: made in house; host or cells: Sf9 insect cells (100,000×g membrane pellet used)
T1 sequence (P20292 1-161): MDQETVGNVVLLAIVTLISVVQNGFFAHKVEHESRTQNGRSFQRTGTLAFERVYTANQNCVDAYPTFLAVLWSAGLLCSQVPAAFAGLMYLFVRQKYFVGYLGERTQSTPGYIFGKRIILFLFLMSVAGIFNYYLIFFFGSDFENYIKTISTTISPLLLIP
Procedure, shortened: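 Membranes from sf9 cells expressing human FLAP in pH 7.5 Tris buffer (MgCl2, EDTA, PMSF). Non-specific binding defined with 10 μM cold L-691,831.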

| SMILES | IC50 [1] [nM] | IC50 [2] [nM] |
| --- | --- | --- |
| C[C@@](c1ccc(-c2cnc(N)nc2)cc1)(c1noc(-c2cnn(CCN)c2)n1)C1CC1 [Example 190, 5-[4-((R)-1-{5-[1-(2-Amino-ethyl)-1H-pyrazol-4-yl]-[1,2,4]oxadiazol-3-yl}-1-cyclopropyl-ethyl)-phenyl]-pyrimidin-2-ylamine] | 230 | 5.9 |
| CC(C)C(C)(c1ccc(-c2cnc(N)nc2)cc1)c1noc(N2CCN(CC(C)(C)O)CC2)n1 (centres unmarked) [Example 211, 1-[4-(3-{1-[4-(2-Amino-pyrimidin-5-yl)-phenyl]-1,2-dimethyl-propyl}-[1,2,4]oxadiazol-5-yl)-piperazin-1-yl]-2-methyl-propan-2-ol] | 230 | 12 |
| CNC(=O)Cn1cc(-c2nc(C(C)(c3ccc(-c4cnc(N)nc4)cc3)C(C)C)no2)cn1 (centres unmarked) [Example 142, 2-[4-(3-{2-[4-(2-aminopyrimidin-5-yl)phenyl]-3-methylbutan-2-yl}-1,2,4-oxadiazol-5-yl)-1H-pyrazol-1-yl]-N-methylacetamide] | 59 | 1.1 |
| Cn1cc(-c2nc([C@@](C)(c3ccc(-c4cnc(N)cn4)cc3)C3CC3)no2)cn1 [Example 184, 5-(4-{(R)-1-Cyclopropyl-1-[5-(1-methyl-1H-pyrazol-4-yl)-[1,2,4]oxadiazol-3-yl]-ethyl}-phenyl)-pyrazin-2-ylamine] | 23 | 2 |
| CC(C)N1CCN(c2nc(C(C)(c3ccc(-c4cnc(N)nc4)cc3)C(C)C)no2)CC1 (centres unmarked) [Example 264, 5-(4-{1-[5-(4-Isopropyl-piperazin-1-yl)-[1,2,4]oxadiazol-3-yl]-1,2-dimethyl-propyl}-phenyl)-pyrimidin-2-ylamine] | 120 | 11 |
| CC(C)C(C)(c1ccc(-c2cnc(N)nc2)cc1)c1noc(-c2ccccc2)n1 (centres unmarked) [Example 2, 5-{4-[3-methyl-2-(5-phenyl-1,2,4-oxadiazol-3-yl)butan-2-yl]phenyl}pyrimidin-2-amine] | 680 | 5.1 |
| CNc1ncc(-c2ccc([C@](C)(c3noc(-c4cnn(CC(=O)N(C)C)c4)n3)C3CC3)cc2)cn1 [Example 226, 2-[4-(3-{(R)-1-Cyclopropyl-1-[4-(2-methylamino-pyrimidin-5-yl)-phenyl]-ethyl}-[1,2,4]oxadiazol-5-yl)-pyrazol-1-yl]-N,N-dimethyl-acetamide] | 30 | 2 |
| CC(C)(c1ccc(-c2cnc(N)nc2)cc1)c1noc(-c2ccc(NCCS(C)(=O)=O)nc2)n1 [Example 71, 5-(4-{2-[5-(6-{[2-(methylsulfonyl)ethyl]amino}pyridin-3-yl)-1,2,4-oxadiazol-3-yl]propan-2-yl}phenyl)pyrimidin-2-amine] | 900 | 17 |
| CC(c1ccc(-c2cnc(N)nc2)cc1)(c1noc(N2CCC[C@@H](O)C2)n1)C1CC1 (stereo partly drawn) [Example 287, (R)-1-(3-{1-[4-(2-Amino-pyrimidin-5-yl)-phenyl]-1-cyclopropyl-ethyl}-[1,2,4]oxadiazol-5-yl)-piperidin-3-ol] | 150 | 7 |
| CC(C)C(C)(c1ccc(-c2cnc(N)nc2)cc1)c1noc(N2CCC(C(=O)O)CC2)n1 (centres unmarked) [Example 219, 1-(3-{1-[4-(2-Amino-pyrimidin-5-yl)-phenyl]-1,2-dimethyl-propyl}-[1,2,4]oxadiazol-5-yl)-piperidine-4-carboxylic acid] | > 5000 | 39 |
| CN(C)C(=O)Cn1cc(-c2nc(C(C)(c3ccc(-c4cnc(N)nc4F)cc3)C3CC3)no2)cn1 (centres unmarked) [Example 275, 2-[4-(3-{1-[4-(2-Amino-4-fluoro-pyrimidin-5-yl)-phenyl]-1-cyclopropyl-ethyl}-[1,2,4]oxadiazol-5-yl)-pyrazol-1-yl]-N,N-dimethyl-acetamide] | 220 | 11 |
| CC(C)C(C)(c1ccc(-c2cnc(N)nc2)cc1)c1noc(-c2cnco2)n1 (centres unmarked) [Example 132, 5-(4-{3-methyl-2-[5-(1,3-oxazol-5-yl)-1,2,4-oxadiazol-3-yl]butan-2-yl}phenyl)pyrimidin-2-amine] | 330 | 2.8 |
| COCCn1cc(-c2nc([C@@](C)(c3ccc(-c4cnc(N)nc4)cc3)C3CC3)no2)cn1 [Example 52, 5-{4-[(1R)-1-cyclopropyl-1-{5-[1-(2-methoxyethyl)-1H-pyrazol-4-yl]-1,2,4-oxadiazol-3-yl}ethyl]phenyl}pyrimidin-2-amine] | 26 | 2.4 |
| CC(C)C(C)(c1ccc(-c2cnc(N)nc2)cc1)c1noc(N2CCC(N(C)C)CC2)n1 (centres unmarked) [Example 218] | 920 | 130 |
| CC(C)C(C)(c1ccc(-c2cnc(N)nc2)cc1)c1noc(C2(C)CCCC2)n1 (centres unmarked) [Example 117, 5-(4-{3-methyl-2-[5-(1-methylcyclopentyl)-1,2,4-oxadiazol-3-yl]butan-2-yl}phenyl)pyrimidin-2-amine] | 1200 | 31 |
| CC(C)C(C)(c1ccc(-c2cnc(N)nc2)cc1)c1noc(N2CC(C)(O)C2)n1 (centres unmarked) [Example 203, 1-(3-{1-[4-(2-Amino-pyrimidin-5-yl)-phenyl]-1,2-dimethyl-propyl}-[1,2,4]oxadiazol-5-yl)-3-methyl-azetidin-3-ol] | 130 | 15 |
| Cn1cc(-c2nc([C@](C)(c3ccc(-c4cnc(N)nc4)cc3)C3CCC3)no2)cn1 [Example 122, 5-(4-{(1S)-1-cyclobutyl-1-[5-(1-methyl-1H-pyrazol-4-yl)-1,2,4-oxadiazol-3-yl]ethyl}phenyl)pyrimidin-2-amine] | 3200 | 140 |
| C[C@](c1ccc(-c2ccc(N)nc2)cc1)(c1noc(-c2cnc(N3CCNCC3)cn2)n1)C1CC1 [Example 268, 5-(4-{(S)-1-Cyclopropyl-1-[5-(3,4,5,6-tetrahydro-2H-[1,2′]bipyrazinyl-5′-yl)-[1,2,4]oxadiazol-3-yl]-ethyl}-phenyl)-pyridin-2-ylamine] | 600 | 9.3 |
| CC(C)C(C)(c1ccc(-c2cnc(N)nc2)cc1)c1noc(N2CCN(C)C(=O)C2)n1 (centres unmarked) [Example 202, 4-(3-{1-[4-(2-Amino-pyrimidin-5-yl)-phenyl]-1,2-dimethyl-propyl}-[1,2,4]oxadiazol-5-yl)-1-methyl-piperazin-2-one] | 350 | 46 |
| COc1cncc(-c2nc(C(C)(c3ccc(-c4cnc(N)nc4)cc3)C(C)C)no2)c1 (centres unmarked) [Example 13, 5-(4-{2-[5-(5-methoxypyridin-3-yl)-1,2,4-oxadiazol-3-yl]-3-methylbutan-2-yl}phenyl)pyrimidin-2-amine] | 460 | 3.6 |
| Cc1nc(-c2ccc([C@](C)(c3noc(-c4cnn(C)c4)n3)C3CC3)cc2)cnc1N [Example 187, 5-(4-{(R)-1-Cyclopropyl-1-[5-(1-methyl-1H-pyrazol-4-yl)-[1,2,4]oxadiazol-3-yl]-ethyl}-phenyl)-3-methyl-pyrazin-2-ylamine] | 23 | 17 |
| CC(C)C(C)(c1ccc(-c2cnc(N)nc2)cc1)c1noc(N2CCN(S(C)(=O)=O)CC2)n1 (centres unmarked) [Example 170, 5-(4-{1-[5-(4-Methanesulfonyl-piperazin-1-yl)-[1,2,4]oxadiazol-3-yl]-1,2-dimethyl-propyl}-phenyl)-pyrimidin-2-ylamine] | 310 | 14 |
| CN(C)C(=O)Cn1cc(-c2nc(C(C)(c3ccc(-c4ccc(N)nc4F)cc3)C3CC3)no2)cn1 (centres unmarked) [Example 278, 2-[4-(3-{1-[4-(6-Amino-2-fluoro-pyridin-3-yl)-phenyl]-1-cyclopropyl-ethyl}-[1,2,4]oxadiazol-5-yl)-pyrazol-1-yl]-N,N-dimethyl-acetamide] | 150 | 5 |
| CC(C)(CO)Nc1ccc(-c2nc(C(C)(C)c3ccc(-c4cnc(N)nc4)cc3)no2)cn1 [Example 72, 2-{[5-(3-{2-[4-(2-aminopyrimidin-5-yl)phenyl]propan-2-yl}-1,2,4-oxadiazol-5-yl)pyridin-2-yl]amino}-2-methylpropan-1-ol] | 440 | 12 |
| CC(C)C(C)(c1ccc(-c2cnc(N)nc2)cc1)c1noc(C2CCCN(C(=O)OC(C)(C)C)C2)n1 (centres unmarked) [Example 111, tert-butyl 3-(3-{2-[4-(2-aminopyrimidin-5-yl)phenyl]-3-methylbutan-2-yl}-1,2,4-oxadiazol-5-yl)piperidine-1-carboxylate] | 2900 | 15 |
| CC(C)C(C)(c1ccc(-c2cnc(N)nc2)cc1)c1noc(C2(C(=O)O)CC2)n1 (centres unmarked) [Example 95, 1-(3-{2-[4-(2-aminopyrimidin-5-yl)phenyl]-3-methylbutan-2-yl}-1,2,4-oxadiazol-5-yl)cyclopropanecarboxylic acid] | > 5000 | 130 |
| CNC(=O)Cn1cc(-c2nc([C@@](C)(c3ccc(-c4cnc(N)nc4)cc3)C3CC3)no2)cn1 [Example 230, 2-[4-(3-{(R)-1-[4-(2-Amino-pyrimidin-5-yl)-phenyl]-1-cyclopropyl-ethyl}-[1,2,4]oxadiazol-5-yl)-pyrazol-1-yl]-N-methyl-acetamide] | 160 | 3.8 |
| C[C@](c1ccc(-c2cnc(N)nc2)cc1)(c1noc(-c2cnn(C3COC3)c2)n1)C1CC1 [Example 55, 5-{4-[(1S)-1-cyclopropyl-1-{5-[1-(oxetan-3-yl)-1H-pyrazol-4-yl]-1,2,4-oxadiazol-3-yl}ethyl]phenyl}pyrimidin-2-amine] | 200 | 11 |
